The values below come from PMC2981816, “Oxalyl retro-peptide gelators. Synthesis, gelation properties and stereochemical effects” (Beilstein Journal of Organic Chemistry, 2010).

Molecules are shown by their SMILES.

What all share (format): physicochemical
Data set [1] in a line: Gelation test: gelator effectiveness (Geff) and minimal gelation concentration in solvents and solvent mixtures.
Test in data set [2]: as above
More on the design: key to Gelator effectiveness (Geff): sol.: soluble; ins.: insoluble; cr.: crystallization; [A]: gel/sol mixture. As to conditions: for Gelator effectiveness (Geff): Table 1. As for the experimental part: Gelation observed for selected gelator–solvent pairs is expressed by gelator effectiveness (Geff, mL) corresponding to the maximal volume of solvent that could be immobilized by 10 mg of the gelator (Table 1). […] However, 3a and 5a also gelled small to moderate volumes of EtOH and rac-2-octanol, whilst Leu incorporating 1a formed gels with the more lipophilic solvents, decalin and tetralin. […] Apparently, the retro-peptides incorporating aliphatic and aromatic amino acids are less versatile gelators compared to retro-peptides containing […] amino acid fragments. The latter points to the importance of intermolecular lipophilic interactions for the stabilization of gel assemblies being stronger in the case of identical amino acids either lipophilic or aromatic, and weaker for mixed aromatic-lipophilic amino acid fragments present in the gelator molecule.

A short description of data set [3]: TEM of gel networks (PWK negative staining), fiber diameters. The note with it: water/DMSO gel. An excerpt: TEM images of diastereomeric (S,S)-1a and (S,R)-1a water/DMSO gels (Figure 2 and Figure 3) show highly distinct morphology of gel networks. In the first gel rather straight fibers and fiber bundles with diameters in the range of 40–100 nm could be observed. […] As observed earlier for other gel systems, gelator effectiveness Geff depends not only solubility but also depends on the thickness of fibers constituting the network. […] The TEM observed thicknesses of gel aggregates existing in water/DMSO and toluene gels could be also correlated with gelator effectiveness (Geff, mL, see Table 1 and Table 2). It appears that (S,R)-1b (Geff 19.5 mL, water/DMSO gel) organized in thinner fibers is more than twice effective a gelator than its diasteroisomer (S,S)-1a (Geff 8.0 mL, water/DMSO gel) which forms thicker fiber bundles. In the toluene gel, (S,R)-1b organizes into wide and short tapes with low networking capacity which is reflected in a very low (Geff 0.15 mL) gelator effectiveness. page 11: TEM and SEM investigations: transmission electron micrographs were taken on an EM 10 A Zeiss or FEI Morgagni 268D transmission electron microscope. A small amount of sample was placed on carbon-coated grid (copper, 100 mesh). The sample was negatively stained with PWK (dipotassium phosphotungstate). […]

Turning to `CC(C)C[C@H](NC(=O)[C@H](CC(C)C)NC(=O)C(=O)N[C@@H](CC(C)C)C(=O)N[C@@H](CC(C)C)C(=O)O)C(=O)O` [(S,S)-1a, (S,S)-bis(LeuLeu)], the solubility in water entry in data set [1] is “insoluble”. Also, the “Gelator effectiveness (Geff)” value in data set [2] (max. volume immobilized by 10 mg gelator, CH2Cl2) is “ins”; in data set [2] (max. volume immobilized by 10 mg gelator, CH3CN), “cr”; in data set [2] (max. volume immobilized by 10 mg gelator, EtOH), “sol”; in data set [2] (max. volume immobilized by 10 mg gelator, H2O/DMF mixture, given as volume + volume), 5.84+3.25 mL; in data set [2] (max. volume immobilized by 10 mg gelator, H2O/DMSO mixture, given as volume + volume), 5.09+2.98 mL; in data set [2] (max. volume immobilized by 10 mg gelator, THF) it was “sol”. The “Gelator effectiveness (Geff)” value in data set [2] (max. volume immobilized by 10 mg gelator, decalin) was 0.2 mL; in data set [2] (max. volume immobilized by 10 mg gelator, p-xylene) it was “ins”; in data set [2] (max. volume immobilized by 10 mg gelator, tetralin), 1.8 mL; in data set [2] (max. volume immobilized by 10 mg gelator, toluene), “cr”; in data set [2] (max. volume immobilized by 10 mg gelator, ±2-octanol) it was “ins”; in data set [2] (maximal volume of solvent immobilized by 10 mg of gelator, solvent H2O) it was “ins”. Also, the “Geff, total volume” value in data set [2] (water/DMSO gel, total of both solvent volumes, 10 mg gelator) is listed as 8.0 mL. The “times more effective in gelation than 3a and 5a” value in data set [2] (water/DMSO or DMF mixtures) is on record as “more than 2 times”. Moreover, the “fiber / fiber bundle diameter” value in data set [3] is listed as 40–100 nm.
